Data taken from patent US8124610B2, “Sodium channel inhibitors” (Icagen Inc., priority 2007, dated 2012).
Read-outs that look alike come from different tables or passages of the source.

Tests used:
hSCN3A = target: T1, hSCN3A (Homo sapiens, UniProt Q9NY46); assay: Whole-cell patch-clamp electrophysiology (conventional or PatchXpress), HEK cells expressing hSCN3A, estimated IC-50; type: cell-based; settings: read-out: SCN3A EIC-50
T1 construct: expressed in transfected cells
Procedure, shortened: (§1)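 Current through each channel was evoked by a 20 ms step to 0 mV following an 8 s conditioning prepulse at the cell's own half-inactivation voltage. Recordings used HEK lines stably expressing the channel, conventional or PatchXpress patch clamp, room temperature, pH 7.4 bath; inhibition taken as pre/post-compound amplitude change.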

hSCN9A = target: T2, hSCN9A (Homo sapiens, UniProt Q15858); assay: Whole-cell patch-clamp electrophysiology (conventional or PatchXpress), HEK cells expressing hSCN9A, estimated IC-50; type: cell-based; settings: read-out: SCN9A EIC-50
T2 construct: expressed in transfected cells
Procedure, shortened: as §1

[1] = estimated IC-50, HEK cells expressing hSCN3A, class symbols or bounds
[2] = estimated IC-50, HEK cells expressing hSCN9A, class symbols or bounds
[3] = Table V, estimated IC-50 from single point electrophysiology, cells clamped at V1/2
[4] = commercial compounds (second Table VI), estimated IC-50 from single point electrophysiology

T1 sequence (Q9NY46 whole entry): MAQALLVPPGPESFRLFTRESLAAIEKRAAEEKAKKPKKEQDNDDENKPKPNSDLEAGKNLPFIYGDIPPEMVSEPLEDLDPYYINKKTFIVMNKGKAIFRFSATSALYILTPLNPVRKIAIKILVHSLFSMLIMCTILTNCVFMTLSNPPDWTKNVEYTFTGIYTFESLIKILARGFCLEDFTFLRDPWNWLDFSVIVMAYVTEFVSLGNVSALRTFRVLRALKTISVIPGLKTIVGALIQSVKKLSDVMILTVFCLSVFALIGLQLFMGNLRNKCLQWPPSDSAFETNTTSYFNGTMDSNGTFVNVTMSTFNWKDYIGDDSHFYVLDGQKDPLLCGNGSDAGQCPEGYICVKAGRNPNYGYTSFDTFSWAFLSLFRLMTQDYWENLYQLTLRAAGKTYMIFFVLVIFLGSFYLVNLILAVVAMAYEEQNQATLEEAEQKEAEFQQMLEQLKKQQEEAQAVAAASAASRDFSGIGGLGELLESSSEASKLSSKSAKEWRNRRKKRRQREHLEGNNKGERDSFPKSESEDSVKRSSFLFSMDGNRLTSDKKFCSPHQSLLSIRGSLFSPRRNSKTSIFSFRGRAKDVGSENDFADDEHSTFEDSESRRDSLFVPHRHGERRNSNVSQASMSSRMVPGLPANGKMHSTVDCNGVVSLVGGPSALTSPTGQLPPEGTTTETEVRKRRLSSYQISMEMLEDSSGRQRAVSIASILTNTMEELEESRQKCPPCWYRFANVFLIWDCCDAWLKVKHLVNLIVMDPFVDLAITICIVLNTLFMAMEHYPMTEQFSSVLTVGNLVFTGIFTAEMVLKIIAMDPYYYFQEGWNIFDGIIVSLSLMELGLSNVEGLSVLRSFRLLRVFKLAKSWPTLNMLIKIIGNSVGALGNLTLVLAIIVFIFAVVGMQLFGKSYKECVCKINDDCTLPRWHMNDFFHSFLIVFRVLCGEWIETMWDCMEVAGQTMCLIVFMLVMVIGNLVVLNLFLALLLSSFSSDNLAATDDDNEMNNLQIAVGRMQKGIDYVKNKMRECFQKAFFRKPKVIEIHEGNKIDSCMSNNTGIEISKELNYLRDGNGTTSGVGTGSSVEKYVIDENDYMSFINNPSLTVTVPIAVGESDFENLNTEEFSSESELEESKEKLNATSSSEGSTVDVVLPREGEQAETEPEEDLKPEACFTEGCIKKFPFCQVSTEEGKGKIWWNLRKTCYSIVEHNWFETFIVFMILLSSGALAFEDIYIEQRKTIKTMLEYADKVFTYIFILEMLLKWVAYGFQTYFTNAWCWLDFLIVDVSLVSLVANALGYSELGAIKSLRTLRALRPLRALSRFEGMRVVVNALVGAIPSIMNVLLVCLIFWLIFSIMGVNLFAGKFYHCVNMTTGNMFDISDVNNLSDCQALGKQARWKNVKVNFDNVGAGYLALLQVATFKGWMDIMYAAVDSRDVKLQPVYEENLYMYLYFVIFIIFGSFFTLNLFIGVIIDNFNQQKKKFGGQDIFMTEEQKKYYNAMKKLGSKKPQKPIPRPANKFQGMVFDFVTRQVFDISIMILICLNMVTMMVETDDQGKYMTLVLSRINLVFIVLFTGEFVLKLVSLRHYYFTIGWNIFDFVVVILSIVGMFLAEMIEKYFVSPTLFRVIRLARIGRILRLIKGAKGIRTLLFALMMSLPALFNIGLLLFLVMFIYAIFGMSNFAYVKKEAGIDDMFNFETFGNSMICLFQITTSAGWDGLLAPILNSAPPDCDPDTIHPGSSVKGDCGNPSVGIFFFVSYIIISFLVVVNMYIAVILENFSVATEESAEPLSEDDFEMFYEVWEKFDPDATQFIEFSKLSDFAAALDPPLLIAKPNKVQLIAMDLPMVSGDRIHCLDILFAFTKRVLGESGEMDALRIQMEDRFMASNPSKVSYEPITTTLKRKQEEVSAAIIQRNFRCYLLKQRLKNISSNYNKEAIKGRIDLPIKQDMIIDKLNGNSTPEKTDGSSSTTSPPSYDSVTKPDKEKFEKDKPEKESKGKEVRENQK
T2 sequence (Q15858 whole entry): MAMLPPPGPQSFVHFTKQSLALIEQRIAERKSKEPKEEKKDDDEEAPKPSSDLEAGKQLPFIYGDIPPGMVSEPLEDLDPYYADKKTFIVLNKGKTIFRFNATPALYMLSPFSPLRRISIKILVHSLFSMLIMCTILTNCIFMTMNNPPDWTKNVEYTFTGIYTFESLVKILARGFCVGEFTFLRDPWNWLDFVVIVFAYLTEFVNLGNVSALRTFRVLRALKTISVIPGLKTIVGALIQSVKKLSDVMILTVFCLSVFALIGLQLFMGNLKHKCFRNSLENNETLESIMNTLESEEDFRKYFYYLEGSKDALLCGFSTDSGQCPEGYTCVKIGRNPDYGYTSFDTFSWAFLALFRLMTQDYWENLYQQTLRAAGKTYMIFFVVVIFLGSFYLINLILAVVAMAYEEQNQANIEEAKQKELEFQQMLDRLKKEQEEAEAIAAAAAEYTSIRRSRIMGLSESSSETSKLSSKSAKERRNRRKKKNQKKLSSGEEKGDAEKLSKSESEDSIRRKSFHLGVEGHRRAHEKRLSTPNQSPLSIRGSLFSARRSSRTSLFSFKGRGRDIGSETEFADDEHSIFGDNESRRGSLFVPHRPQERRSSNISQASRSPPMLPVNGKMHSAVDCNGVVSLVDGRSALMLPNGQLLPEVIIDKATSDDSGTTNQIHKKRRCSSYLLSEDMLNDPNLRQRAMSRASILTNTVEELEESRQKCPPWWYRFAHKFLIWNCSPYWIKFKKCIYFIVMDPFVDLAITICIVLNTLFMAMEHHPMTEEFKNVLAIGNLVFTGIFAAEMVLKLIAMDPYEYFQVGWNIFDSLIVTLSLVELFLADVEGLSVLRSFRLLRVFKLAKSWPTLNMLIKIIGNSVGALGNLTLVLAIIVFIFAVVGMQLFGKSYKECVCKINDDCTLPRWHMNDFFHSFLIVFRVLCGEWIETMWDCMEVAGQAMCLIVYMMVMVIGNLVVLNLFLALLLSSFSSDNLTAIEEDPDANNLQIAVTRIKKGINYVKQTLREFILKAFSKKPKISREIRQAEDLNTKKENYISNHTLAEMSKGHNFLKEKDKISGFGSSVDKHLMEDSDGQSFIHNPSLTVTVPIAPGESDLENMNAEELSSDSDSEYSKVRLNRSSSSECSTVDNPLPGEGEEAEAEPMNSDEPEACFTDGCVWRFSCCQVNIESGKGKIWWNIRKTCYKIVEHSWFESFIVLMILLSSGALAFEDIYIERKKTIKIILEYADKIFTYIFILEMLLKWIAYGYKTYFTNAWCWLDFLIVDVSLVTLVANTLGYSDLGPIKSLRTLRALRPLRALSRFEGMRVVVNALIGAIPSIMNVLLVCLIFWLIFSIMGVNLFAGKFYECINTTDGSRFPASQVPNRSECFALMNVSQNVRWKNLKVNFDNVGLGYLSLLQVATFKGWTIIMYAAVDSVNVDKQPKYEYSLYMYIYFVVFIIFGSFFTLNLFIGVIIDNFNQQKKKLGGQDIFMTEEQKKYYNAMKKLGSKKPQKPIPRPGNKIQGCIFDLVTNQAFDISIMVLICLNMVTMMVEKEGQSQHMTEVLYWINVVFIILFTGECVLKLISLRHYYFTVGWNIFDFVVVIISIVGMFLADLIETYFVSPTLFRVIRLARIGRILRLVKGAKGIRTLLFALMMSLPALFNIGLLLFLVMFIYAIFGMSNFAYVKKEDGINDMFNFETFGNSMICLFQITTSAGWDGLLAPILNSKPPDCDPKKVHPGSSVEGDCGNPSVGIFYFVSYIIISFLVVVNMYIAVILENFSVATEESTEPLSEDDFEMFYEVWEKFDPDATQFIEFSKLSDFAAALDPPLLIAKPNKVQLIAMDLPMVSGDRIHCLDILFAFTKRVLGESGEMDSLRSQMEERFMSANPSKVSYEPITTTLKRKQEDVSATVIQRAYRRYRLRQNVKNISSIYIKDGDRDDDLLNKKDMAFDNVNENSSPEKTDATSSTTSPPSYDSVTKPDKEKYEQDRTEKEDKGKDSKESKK

IC50 (hSCN3A; [1]) [nM] | IC50 (hSCN9A; [2]) [nM] | also measured | Structure (SMILES)
< 2000 | < 2000 |  | Cc1cc(Nc2ccc(S(=O)(=O)Nc3nccs3)c(F)c2)n(-c2ccccc2C)n1 [Compound 146, 2-fluoro-4-(3-methyl-1-o-tolyl-1H-pyrazol-5-ylamino)-N-(thiazol-2-yl)benzenesulfonamide]
< 2000 | < 2000 |  | COc1ccccc1-n1nc(C)cc1Nc1ccc(S(=O)(=O)Nc2nccs2)c(F)c1 [Compound 188, 2-fluoro-4-(1-(2-methoxyphenyl)-3-methyl-1H-pyrazol-5-ylamino)-N-(thiazol-2-yl)benzenesulfonamide]
 |  | IC50 (hSCN3A; [3]): < 2000 nM; IC50 (hSCN9A; [3]): > 10000 nM | CC(C)(C)n1nc(Nc2ccc(S(=O)(=O)Nc3nccs3)cc2)nc1N [Compound 19, 4-(5-Amino-1-tert-butyl-1H-1,2,4-triazol-3-ylamino)-N-(thiazol-2-yl)benzenesulfonamide]
< 2000 | 2000 to 10000 |  | O=S(=O)(Nc1nccs1)c1ccc(Nc2ccn(Cc3ccc(Cl)cc3)n2)nc1 [Compound 227, 6-(1-(4-chlorobenzyl)-1H-pyrazol-3-ylamino)-N-(thiazol-2-yl)pyridine-3-sulfonamide]
> 1000 | 2000 to 10000 |  | O=S(=O)(Nc1nccs1)c1ccc(Nc2nc(CN3CCC[C@H]3CN3CCCC3)cs2)cc1 [Compound 58, (S)-4-(4-((2-(pyrrolidin-1-ylmethyl)pyrrolidin-1-yl)methyl)thiazol-2-ylamino)-N-(thiazol-2-yl)benzenesulfonamide]
< 2000 | 2000 to 10000 |  | Cc1csc(NS(=O)(=O)c2ccc(Nc3nc(Cc4ccc(Cl)cc4)cs3)cc2F)n1 [Compound 109, 4-(4-(4-chlorobenzyl)thiazol-2-ylamino)-2-fluoro-N-(4-methylthiazol-2-yl)benzenesulfonamide]
< 2000 | < 2000 |  | O=S(=O)(Nc1nccs1)c1ccc(Nc2nc(CNCc3ccc(Cl)cc3)cs2)cc1 [Compound 65, 4-(4-((4-chlorobenzylamino)methyl)thiazol-2-ylamino)-N-(thiazol-2-yl)benzenesulfonamide]
< 2000 | < 2000 |  | O=S(=O)(Nc1nccs1)c1ccc(Nc2nc(CNCC(c3ccccc3)c3ccccc3)cs2)cc1 [Compound 56, 4-(4-((2,2-diphenylethylamino)methyl)thiazol-2-ylamino)-N-(thiazol-2-yl)benzenesulfonamide]
< 2000 | > 1000 |  | O=S(=O)(Nc1nccs1)c1ccc(Nc2nc(C3(c4ccc(Cl)cc4)CCCC3)cs2)cc1 [Compound 64, 4-(4-(1-(4-chlorophenyl)cyclopentyl)thiazol-2-ylamino)-N-(thiazol-2-yl)benzenesulfonamide]
< 2000 | 2000 to 10000 |  | O=S(=O)(Nc1nccs1)c1ccc(Nc2cncc(Cc3cc(F)cc(F)c3)n2)cc1 [Compound 98, 4-(6-(3,5-difluorobenzyl)pyrazin-2-ylamino)-N-(thiazol-2-yl)benzenesulfonamide]
> 1000 | > 3000 |  | O=S(=O)(Nc1nccs1)c1ccc(Nc2ncccn2)cc1 [Compound 44, 4-(pyrimidin-2-ylamino)-N-(thiazol-2-yl)benzenesulfonamide]
< 2000 | < 2000 |  | Cc1cc(Nc2ccc(S(=O)(=O)Nc3ncc(Cl)s3)c(F)c2)n(-c2ccccc2)n1 [Compound 162, N-(5-chlorothiazol-2-yl)-2-fluoro-4-(3-methyl-1-phenyl-1H-pyrazol-5-ylamino)benzenesulfonamide]
 |  | IC50 (hSCN3A; [3]): < 2000 nM; IC50 (hSCN9A; [3]): 2000 to 10000 nM | O=S(=O)(Nc1nccs1)c1ccc(Nc2nc(C(c3ccccc3)c3ccccc3)cs2)cc1 [Compound 2, 4-(4-Benzhydrylthiazol-2-ylamino)-N-(thiazol-2-yl)benzenesulfonamide]
< 2000 | < 2000 |  | O=S(=O)(Nc1nccs1)c1ccc(Nc2nc(COc3ccc(Cl)cc3Cl)cs2)cc1 [Compound 95, 4-(4-((2,4-dichlorophenoxy)methyl)thiazol-2-ylamino)-N-(thiazol-2-yl)benzenesulfonamide]
< 2000 | < 2000 |  | O=S(=O)(Nc1nccs1)c1ccc(Nc2nc(CNCCCCc3ccccc3)cs2)cc1 [Compound 69, 4-(4-((4-phenylbutylamino)methyl)thiazol-2-ylamino)-N-(thiazol-2-yl)benzenesulfonamide]
< 2000 | < 2000 |  | O=S(=O)(Nc1nccs1)c1ccc(Nc2cc(Cc3ccc(Cl)cc3)n[nH]2)cc1F [Compound 115, 4-(3-(4-chlorobenzyl)-1H-pyrazol-5-ylamino)-2-fluoro-N-(thiazol-2-yl)benzenesulfonamide]
> 1000 | > 3000 |  | COc1ccnc(Nc2ccc(S(=O)(=O)Nc3nccs3)cc2)n1 [Compound 85, 4-(4-methoxypyrimidin-2-ylamino)-N-(thiazol-2-yl)benzenesulfonamide]

IC50 (hSCN3A; [1]) [nM] | IC50 (hSCN9A; [2]) [nM] | also measured | Structure (SMILES)
2000 to 10000 | > 1000 |  | O=S(=O)(Nc1nccs1)c1ccc(Nc2ccn(Cc3ccc(Cl)cc3)n2)cc1OC(F)(F)F [Compound 266, 4-(1-(4-chlorobenzyl)-1H-pyrazol-3-ylamino)-N-(thiazol-2-yl)-2-(trifluoromethoxy)benzenesulfonamide]
 |  | IC50 (hSCN3A; [4]): 1610 nM; IC50 (hSCN9A; [4]): > 3000 nM | Cc1ccc(-c2nnc(Nc3ccc(S(=O)(=O)Nc4nccs4)cc3)c3ccccc23)cc1 [Compound 41, N-(thiazol-2-yl)-4-(4-p-tolylphthalazin-1-ylamino)benzenesulfonamide, reference compound]
< 2000 | < 2000 |  | O=S(=O)(Nc1nccs1)c1ccc(Nc2ccn(Cc3ccc(Cl)cc3)n2)cc1Cl [Compound 263, 2-chloro-4-(1-(4-chlorobenzyl)-1H-pyrazol-3-ylamino)-N-(thiazol-2-yl)benzenesulfonamide]
< 2000 | > 10000 |  | O=S(=O)(Nc1nccs1)c1ccc(Nc2nccc(OCc3ccccc3)n2)cc1 [Compound 45, 4-(4-(benzyloxy)pyrimidin-2-ylamino)-N-(thiazol-2-yl)benzenesulfonamide]
 |  | IC50 (hSCN3A; [3]): < 2000 nM; IC50 (hSCN9A; [3]): > 10000 nM | O=S(=O)(Nc1nccs1)c1ccc(Nc2nnc(Cc3ccc(C(F)(F)F)cc3)o2)cc1 [Compound 28, N-(thiazol-2-yl)-4-(5-(4-(trifluoromethyl)benzyl)-1,3,4-oxadiazol-2-ylamino)benzenesulfonamide]
 |  | IC50 (hSCN3A; [3]): < 2000 nM; IC50 (hSCN9A; [3]): > 10000 nM | O=S(=O)(Nc1nccs1)c1ccc(Nc2nnc(Cc3ccc(C(F)(F)F)cc3)s2)cc1 [Compound 27, N-(thiazol-2-yl)-4-(5-(4-(trifluoromethyl)benzyl)-1,3,4-thiadiazol-2-ylamino)benzenesulfonamide]
< 2000 | 2000 to 10000 |  | O=S(=O)(Nc1nccs1)c1ccc(Nc2cnn(CC(F)(F)F)c2)cc1F [Compound 130, 2-fluoro-N-(thiazol-2-yl)-4-(1-(2,2,2-trifluoroethyl)-1H-pyrazol-4-ylamino)benzenesulfonamide]
< 2000 | < 2000 |  | CC(C)c1cc(Nc2ccc(S(=O)(=O)Nc3nccs3)c(F)c2)n(-c2ccccc2)n1 [Compound 145, 2-fluoro-4-(3-isopropyl-1-phenyl-1H-pyrazol-5-ylamino)-N-(thiazol-2-yl)benzenesulfonamide]
2000 to 10000 | 2000 to 10000 |  | Cc1cnc(NS(=O)(=O)c2ccc(Nc3nc(Cc4ccc(Cl)cc4)cs3)cc2F)s1 [Compound 108, 4-(4-(4-chlorobenzyl)thiazol-2-ylamino)-2-fluoro-N-(5-methylthiazol-2-yl)benzenesulfonamide]
< 2000 | > 3000 |  | O=S(=O)(Nc1nccs1)c1ccc(Nc2nc(-c3ccccc3)c(-c3ccccc3)s2)cc1 [Compound 47, 4-(4,5-diphenylthiazol-2-ylamino)-N-(thiazol-2-yl)benzenesulfonamide]
 |  | IC50 (hSCN3A; [3]): 2000 to 10000 nM; IC50 (hSCN9A; [3]): 2000 to 10000 nM | CC(=O)c1sc(Nc2ccc(S(=O)(=O)Nc3nccs3)c(F)c2)nc1C [Compound 9, 4-(5-Acetyl-4-methyl-thiazol-2-ylamino)-2-fluoro-N-thiazol-2-yl-benzenesulfonamide]
< 2000 | < 2000 |  | O=S(=O)(Nc1nccs1)c1ccc(Nc2ccn(Cc3ccc(C(F)(F)F)cc3)n2)c(F)c1 [Compound 185, 3-fluoro-N-(thiazol-2-yl)-4-(1-(4-(trifluoromethyl)benzyl)-1H-pyrazol-3-ylamino)benzenesulfonamide]
 |  | IC50 (hSCN3A; [3]): < 2000 nM; IC50 (hSCN9A; [3]): < 2000 nM | CC(C)(C)n1nc(Cc2ccc(Cl)cc2)cc1Nc1ccc(S(=O)(=O)Nc2nccs2)cc1 [Compound 15, 4-(1-tert-butyl-3-(4-chlorobenzyl)-1H-pyrazol-5-ylamino)-N-(thiazol-2-yl)benzenesulfonamide]
< 2000 | 2000 to 10000 |  | O=S(=O)(Nc1nccs1)c1ccc(Nc2cncc(C(c3ccccc3)c3ccccc3)n2)cc1 [Compound 92, 4-(6-benzhydrylpyrazin-2-ylamino)-N-(thiazol-2-yl)benzenesulfonamide]
 |  | IC50 (hSCN3A; [3]): < 2000 nM; IC50 (hSCN9A; [3]): < 2000 nM | Cn1nc(CC2CCCCC2)cc1Nc1ccc(S(=O)(=O)Nc2nccs2)cc1 [Compound 29, 4-(3-(cyclohexylmethyl)-1-methyl-1H-pyrazol-5-ylamino)-N-(thiazol-2-yl)benzenesulfonamide]
> 1000 | 2000 to 10000 |  | O=S(=O)(Nc1nccs1)c1ccc(Nc2nc(-c3ccccc3)cs2)cc1 [Compound 43, 4-(4-phenylthiazol-2-ylamino)-N-(thiazol-2-yl)benzenesulfonamide]
